{"source": "paper PMC4885601", "about": "(Journal of Medicinal Chemistry, 2016)", "key": {"[1]": {"system": "mouse", "conditions": "WWTW assay; cited from earlier work"}, "[2]": {"target": "κ-opioid receptor (KOR) (Homo sapiens, UniProt P41145)", "sequence (P41145 whole entry)": "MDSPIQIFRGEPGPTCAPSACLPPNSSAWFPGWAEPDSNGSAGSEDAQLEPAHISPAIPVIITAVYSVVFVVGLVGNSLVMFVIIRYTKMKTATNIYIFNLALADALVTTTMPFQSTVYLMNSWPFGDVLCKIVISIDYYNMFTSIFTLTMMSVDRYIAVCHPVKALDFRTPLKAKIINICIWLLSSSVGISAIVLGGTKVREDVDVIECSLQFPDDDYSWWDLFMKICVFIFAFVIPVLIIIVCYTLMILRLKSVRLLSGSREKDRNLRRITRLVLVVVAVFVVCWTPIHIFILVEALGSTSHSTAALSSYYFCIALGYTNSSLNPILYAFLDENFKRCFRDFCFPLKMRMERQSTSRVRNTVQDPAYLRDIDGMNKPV", "test": "Stimulation of [35S]GTPγS binding at KOR", "type": "biochemical", "conditions": "percent maximal stimulation relative to U69,593 at 10 μM"}, "[3]": {"target": "T1, δ-opioid receptor (DOR) (Rattus norvegicus, UniProt P33533)", "T1 sequence (P33533 whole entry)": "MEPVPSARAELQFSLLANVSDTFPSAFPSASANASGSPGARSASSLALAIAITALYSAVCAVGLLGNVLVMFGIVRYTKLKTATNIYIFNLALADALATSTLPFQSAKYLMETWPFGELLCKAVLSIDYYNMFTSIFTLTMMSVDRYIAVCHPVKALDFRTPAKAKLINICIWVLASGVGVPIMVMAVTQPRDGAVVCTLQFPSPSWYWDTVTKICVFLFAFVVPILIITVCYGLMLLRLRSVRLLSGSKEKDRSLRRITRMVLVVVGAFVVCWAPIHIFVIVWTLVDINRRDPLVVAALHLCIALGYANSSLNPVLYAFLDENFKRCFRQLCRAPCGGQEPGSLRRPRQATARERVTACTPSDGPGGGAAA", "conditions": "cited from earlier work"}, "[4]": {"system": "mouse", "test": "In vivo warm water tail withdrawal", "conditions": "ip, up to 10 mg/kg"}, "[5]": {"target": "T1, δ-opioid receptor (DOR)", "test": "Stimulation of [35S]GTPγS binding at DOR", "type": "biochemical", "conditions": "percent maximal stimulation relative to DPDPE at 10 μM"}}, "note": "Like-named read-outs stand apart in the source and are kept apart here.", "data": [{"smiles": "CC(=O)N1CC[C@@H](NC(=O)[C@@H](N)Cc2c(C)cc(O)cc2C)c2cc(Cc3ccc4ccccc4c3)ccc21", "note": "[15b, (S)-N-((R)-1-Acetyl-6-(naphthalen-2-ylmethyl)-1,2,3,4-tetrahydroquinolin-4-yl)-2-amino-3-(4-hydroxy-2,6-dimethylphenyl)propanamide]", "values": [{"measurement": "duration of in vivo antinociception", "setting": "[1]", "result": "greater than 3 h"}]}, {"smiles": "Cc1cc(O)cc(C)c1C[C@H](N)C(=O)N[C@@H]1CCN(C(=O)C2CCC2)c2ccc(Cc3ccccc3)cc21", "note": "[4g, (S)-2-Amino-N-((R)-6-benzyl-1-(cyclobutanecarbonyl)-1,2,3,4-tetrahydroquinolin-4-yl)-3-(4-hydroxy-2,6-dimethylphenyl)propanamide]", "values": [{"measurement": "% stimulation KOR", "setting": "[2]", "result": "no efficacy"}]}, {"smiles": "CC(=O)N1CC[C@@H](NC(=O)[C@@H](N)Cc2c(C)cc(O)cc2C)c2cc(Cc3ccccc3)ccc21", "note": "[4b, (S)-N-((R)-1-Acetyl-6-benzyl-1,2,3,4-tetrahydroquinolin-4-yl)-2-amino-3-(4-hydroxy-2,6-dimethylphenyl)propanamide]", "values": [{"measurement": "% stimulation DOR", "setting": "[3]", "result": 26, "unit": "%"}]}, {"smiles": "Cc1cc(O)cc(C)c1C[C@H](N)C(=O)N[C@@H]1CCN(C(=O)C2CC2)c2ccc(Cc3ccccc3)cc21", "note": "[4f, (S)-2-Amino-N-((R)-6-benzyl-1-(cyclopropanecarbonyl)-1,2,3,4-tetrahydroquinolin-4-yl)-3-(4-hydroxy-2,6-dimethylphenyl)propanamide]", "values": [{"measurement": "antinociception in the WWTW assay", "setting": "[4]", "result": "partial antinociception"}]}, {"smiles": "Cc1cc(O)cc(C)c1C[C@H](N)C(=O)N[C@@H]1CCN(C(=O)c2ccccc2)c2ccc(Cc3ccccc3)cc21", "note": "[4j, (S)-2-Amino-N-((R)-1-benzoyl-6-benzyl-1,2,3,4-tetrahydroquinolin-4-yl)-3-(4-hydroxy-2,6-dimethylphenyl)propanamide]", "values": [{"measurement": "% stimulation DOR", "setting": "[5]", "result": "no stimulation"}]}, {"smiles": "COC(=O)N1CC[C@@H](NC(=O)[C@@H](N)Cc2c(C)cc(O)cc2C)c2cc(Cc3ccccc3)ccc21", "note": "[4h, Methyl (R)-4-((S)-2-Amino-3-(4-hydroxy-2,6-dimethylphenyl)propanamido)-6-benzyl-3,4-dihydroquinoline-1(2H)-carboxylate]", "values": [{"measurement": "antinociception in the WWTW assay", "setting": "[4]", "result": "full in vivo antinociception"}]}]}
